Test results: patent US7309494B2, “Peptides of the respiratory syncytial virus (RSV) G protein and their use in a vaccine” (Pierre Fabre Medicament, priority 2001, dated 2007)
Entries after “also recorded” stand apart in the source; their conditions may differ.

Tests used:
RSV-A [1] = test: Anti-RSV-A antibody titer before and after immunization in naive mice; format: in vivo, Balb/c mice
Experimental: (§1) In order to test the immunogenicity of the G23a and G20a peptides, Balb/c mice were immunized with 6 or 1.5 μg of G2Na equivalent twice, on D0 and D14, intramuscularly.
(§2) Some mice were sensitized with RSV 20 days before the first immunization in order to make them seropositive with respect to RSV. A sample was taken from the mice before each immunization and the anti-G2Na, RSV-A and RSV-B antibody titers were determined.

RSV-B = test: Anti-RSV-B antibody titer before and after immunization in naive mice; format: in vivo; settings: naive Balb/c mice, 6 or 1.5 μg G2Na equivalent i.m. on D0 and D14; after first immunization
Experimental: as §1, §2

[2] = Determination of the IHS (immediate hypersensitivity) in guinea pigs; format: in vivo; settings: for death of the guinea pigs (dead/tested): i.m. D0 and D8 with 20% adjuphos, i.v. booster D21
Experimental: Guinea pigs are immunized on D0 and D8 with the various molecules adjuvented with 20% (v/v) adjuphos, given i.m. On D21, a booster is given with the various molecules, nonadjuvented, by i.v. The death of the guinea pigs is then evaluated.
A positive experimental control consisting of ovalbumin at 200 μg is included for each molecule tested (cf. table 3 below).

RSV-A [3] = test: Protection against an RSV-A challenge in immunized mice (viral titer 5 days after challenge); format: in vivo, Balb/c mice; settings: naive mice
Experimental: as §1
Ten days after the final immunization, the mice were challenged with 10^5 pfu/50 μl of RSV-A. The viral titer was measured 5 days after the challenge.

Row | Molecule | anti-RSV-A antibody response (RSV-A [1]; naive Balb/c mice, 6 or 1.5 μg G2Na equivalent i.m. on D0 and D14, after first immunization) | immunogenicity in naive mice (summary) (RSV-A [1]; naive mice) | anti-RSV-B antibody response (RSV-B) | death of the guinea pigs (dead/tested) ([2]; 4 mg) | death of the guinea pigs (dead/tested) ([2]; 40 mg) | induction of IHS ([2]; guinea pigs, 6 animals tested) | protection of the pulmonary tract subsequent to challenge with RSV-A (RSV-A [3]; challenge 10^5 pfu/50 μl RSV-A ten days after final immunization) | immunogenicity and protection compared with BBG2Na (RSV-A [3]) | death of the guinea pigs (dead/tested) ([2]; positive control T+, ovalbumin at 200 μg)
1 | G20a: fragment of the G protein of RSV-A (140-190)-(144-158) of 69 amino acids, SEQ ID No.1 | develop anti-RSV-A and RSV-B antibody responses from the first immunization | immunogenic | develop anti-RSV-A and RSV-B antibody responses from the first immunization | 0/6 | 0/6 | does not induce any IHS in 6/6 animals tested | induces protection of the pulmonary tract; also recorded: protective | comparable to those observed with BBG2Na | 
2 | ovalbumin (protein, UniProt P01012 2-386, looked up, positive experimental control consisting of ovalbumin at 200 μg) Ovalbumin: GSIGAASMEFCFDVFKELKVHHANENIFYCPIAIMSALAMVYLGAKDSTRTQINKVVRFDKLPGFGDSIEAQCGTSVNVHSSLRDILNQITKPNDVYSFSLASRLYAEERYPILPEYLQCVKELYRGGLEPINFQTAADQARELINSWVESQTNGIIRNVLQPSSVDSQTAMVLVNAIVFKGLWEKAFKDEDTQAMPFRVTEQESKPVQMMYQIGLFRVASMASEKMKILELPFASGTMSMLVLLPDEVSGLEQLESIINFEKLTEWTSSNVMEERKIKVYLPRMKMEEKYNLTSVLMAMGITDVFSSSANLSGISSAESLKISQAVHAAHAEINEAGREVVGSAEAGVDAASVSEEFRADHPFLFCIKHIATNAVLFFGRCVSP |  |  |  |  |  |  |  |  | 5/6
